Source: patent US4791215A, “Derivatives of glutamic acid and aspartic acid” (priority 1984, dated 1988)
“And” between values parts separate entries of the source, which are not always exact repeats. Equal entries are not always repeated.

Experiments:
morphine analgesia = assay: Increase in analgesia of morphine, Tail Flick Test (Experiment 1); format: in vivo, rats; conditions: for percentage variation of latency of pain sensation / M (10-90) ± SE, mean percentage variation of latency: compound 10 mg/kg i.p. + morphine 2 mg/kg; for M (10-90) ± SE, mean percentage variation of latency: mean 10-90 min; for Power ratio with respect to morphine alone: rat, in vivo
Summary of the method: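 Non-fasted male rats (150-200 g); a tail point is exposed to a 75 °C heat source and latency to tail movement recorded, 8 s cut-off. Readings taken before and 10, 20, 30, 45, 60 and 90 min after analgesic treatment; percentage variation calculated per animal.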

[1] = system: endogenous opiates analgesia; assay: Analgesic activity of endogenous opiates released by transcutaneous shock, Tail Flick Test (Experiment 3); format: in vivo, rats
Summary of the method: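 Non-fasted male rats (~200 g) stressed with 60 Hz-2.5 mA front-leg current, 1 s pulses every 5 s for 20 min, to release endogenous opiates. Analgesia measured by tail flick test.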

[2] = system: enkephalinamide (DALA) analgesia; assay: Potentiation of DALA (enkephalinamide) analgesia, i.c.v., Tail Flick Test (Experiment 4); format: in vivo, rats; parameters: scale not given here; conditions: DALA 10 + compound 0.01 mg/kg (ICV), 0.01 mg/kg
Source text: Experiment No. 4: Potentiation of the analgesic activities of enkephalins induced by some of the compounds of the invention. […]

[3] = system: CCK-8 induced contraction of guinea pig gall bladder; assay: Anti-CCK-8 activity on gall bladders in situ; format: in vivo; conditions: for percentage inhibition of contracting effect of CCK-8: single experiments; for ED50: Cavia porcellus, iv, CCK-8 10 ng/kg i.v., read-out: ED50 (inhibition of 50% of contracting effect of CCK-8)
[4] = system: intestinal transit of carbon; assay: Anti-spastic activity, vegetable carbon intestinal transit test; format: in vivo, mice; conditions: Mus musculus, ip; read-out: antispastic activity ED50 (dose reducing intestinal transit of carbon by 50%)
Source text: The anti-spastic activity which the present compounds exert on the entire digestive system is also notable. Measured in mice with the vegetable carbon test (rate of transit through the stomach and the intestine), this activity is illustrated in the following table.
claimed administered intraperitoneally in mice. Values
expressed as the ED 50 in mg/kg, that is the dose which
reduces the intestinal transit of carbon by 50%

biliary flow = assay: Biliary flow (choleretic activity); format: in vivo, rat; conditions: for ED50: Rattus norvegicus, iv, average over 2 hours, read-out: ED50 (dose causing 50% increase in biliary flow)
Summary of the method: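 In urethane-anaesthetised rats with bile duct cannulated, bile collected 1 h before and 2 h after intravenous compound dosing. Samples weighed at 30 minute intervals; 0.5 ml physiological solution given every 30 minutes to prevent dehydration.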

[5] = system: tolerance induced by morphine; assay: Antagonism to development of tolerance to repeated morphine HCl, Tail Flick Test (Experiment 5); conditions: compound 10 mg/kg + morphine 5 mg/kg i.p.
Method: Experiment No. 5: Antagonism of several products of the invention to the development of tolerance induced in rats by the repeated administration of morphine HCl.
Several of the compounds of the invention were examined to determine their possible capacity to antagonise the development of tolerance induced by morphine. Groups of 6 male rats having a weight of about 200-250 grams were used.
At intervals of 24 hours from the first treatment (time 0) each animal (except the control group treated physiologically) received 5 mg/kg of morphine hydrochloride i.p. together with 10 mg/kg i.p. of the compounds indicated (with the exception of the group treated solely with morphine).
The determination of the pain threshold was effected 15', 30', 45' and 60' from the treatment by the Tail Flick Test.

[6] = compound 1 mg/kg iv + stress, 5'
[7] = compound 1 mg/kg iv + stress, 10'
[8] = compound 1 mg/kg iv + stress, 15'
[9] = compound 3 mg/kg iv + stress, 5'
[10] = compound 3 mg/kg iv + stress, 10'
[11] = compound 3 mg/kg iv + stress, 15'

Row | SMILES | percentage variation of latency of pain sensation (morphine analgesia; 10') [%] | percentage variation of latency of pain sensation (morphine analgesia; 20') [%] | percentage variation of latency of pain sensation (morphine analgesia; 30') [%] | percentage variation of latency of pain sensation (morphine analgesia; 45') [%] | percentage variation of latency of pain sensation (morphine analgesia; 60') [%] | percentage variation of latency of pain sensation (morphine analgesia; 90') [%] | M (10-90) ± SE, mean percentage variation of latency (morphine analgesia) [%] | Power ratio with respect to morphine alone (morphine analgesia) | average latency, Tail Flick [1, 6] [s] | average latency, Tail Flick [1, 7] [s] | average latency, Tail Flick [1, 8] [s] | average latency, Tail Flick [1, 9] [s] | average latency, Tail Flick [1, 10] [s] | average latency, Tail Flick [1, 11] [s] | percentage inhibition of contracting effect of CCK-8 ([3]; 30 mg/kg i.v.) | ED50 [3] [mg/kg] | ED50 [4] [mg/kg] | % increase in biliary flow with respect to controls (biliary flow; 12.5 mg/kg i.v.) | % increase in biliary flow with respect to controls (biliary flow; 25 mg/kg i.v.) | % increase in biliary flow with respect to controls (biliary flow; 100 mg/kg i.v.) | also measured
1 | CCCN(CCC)C(=O)C(CCC(=O)O)NC(=O)c1ccc(C)c(C)c1 (stereo not shown) [Compound C-30] | 69.9 ± 16 | 100.0 ± 0 | 95.2 ± 4.8 | 91.8 ± 8 | 100 | 100.0 ± 0 | 92.8 ± 12 | 3.11 | 7.26 ± 0.52 | 6.10 ± 0.49 | 4.68 ± 0.5 | 9.46 ± 0.64 | 7.96 ± 0.61 | 6.82 ± 0.78 | 82.1% and 92.5% and 79.5% | 13.8 | 77.7 | +33.7% | +60.2% | +197.8% | analgesic activity, Tail Flick ([2]; 10'): 58 and 59.1; analgesic activity, Tail Flick ([2]; 20'): 60.8 and 67.8; analgesic activity, Tail Flick ([2]; 30'): 77.0 and 86.0; analgesic activity, Tail Flick ([2]; 45'): 66.4 and 83.3; analgesic activity, Tail Flick ([2]; 60'): 48.8 and 83.3; analgesic activity, Tail Flick ([2]; 90'): 45.0 and 55.1; MEAN analgesic activity, Tail Flick ([2]; mean): 59.33 and 73.26; % increase in biliary flow with respect to controls (biliary flow; 50 mg/kg i.v.): +121.2%; ED50 (biliary flow): 18.5 mg/kg; percentage variation in latency time (Effect %) ([5]; 24 h): 66.53% and 67.27%; percentage variation in latency time (Effect %) ([5]; 48 h): 50.61% and 67.31%; percentage variation in latency time (Effect %) ([5]; 72 h): 47.53% and 56.04%; percentage variation in latency time (Effect %) ([5]; 96 h): 29.65% and 49.48%; percentage variation in latency time (Effect %) ([5]; 120 h): 34.24% and 34.34%; percentage variation in latency time (Effect %) ([5]; 144 h): 26.97% and 27.50%; percentage variation in latency time (Effect %) ([5]; time 0): 74.51% and 44.52%
2 | CCCN(CCC)C(=O)C(CCC(=O)O)NC(=O)c1ccc(C(C)C)cc1 (stereo not shown) [Compound C-36] | 8.6 | 100.0 ± 0 | 96.9 ± 3 | 90.0 ± 10 | 96.9 ± 3 | 92.4 ± 25 | 80.8 ± 36 | 2.71 | 6.9 ± 0.74 | 6.5 ± 0.42 | 4.66 ± 0.55 | 9.22 ± 0.67 | 8.1 ± 0.43 | 9.28 ± 0.64 | 100% | 5.1 | 208 | +15.5% | +48.5% | +215.8% | percentage inhibition of contracting effect of CCK-8 ([3]; 10 mg/kg i.v.): 64.8% and 71.6% and 63.3% and 78.7%; ED50 (biliary flow): 26.8 mg/kg
